Measurements: patent US10517867B2, “Posaconazole derivative, pharmaceutical composition and use thereof” (priority 2016, dated 2019)

Assay: Determination of solubility in deionized water (HPLC, external standard)
Conditions: for solubility at 30 min: 25 °C, water, thermodynamic from solid

Row | solubility at 30 min [mg/mL] | SMILES | Solubility (25±2° C., after 30 min) [mg/mL]
1 | 21.8 | CC[C@@H]([C@H](C)O)n1ncn(-c2ccc(N3CCN(c4ccc(OC[C@@H]5CO[C@@](Cn6c[n+](C(C)OC(=O)SC[C@H](N)C(=O)O)cn6)(c6ccc(F)cc6F)C5)cc4)CC3)cc2)c1=O (stereo partly drawn) [ST0030] | 
2 | 30.5 | CC[C@@H]([C@H](C)O)n1ncn(-c2ccc(N3CCN(c4ccc(OC[C@@H]5CO[C@@](Cn6c[n+](C(C)OC(=O)N(C)c7ncccc7CN)cn6)(c6ccc(F)cc6F)C5)cc4)CC3)cc2)c1=O (stereo partly drawn) [ST0032] | 
3 | > 50 | CC[C@@H]([C@H](C)O)n1ncn(-c2ccc(N3CCN(c4ccc(OC[C@@H]5CO[C@@](Cn6c[n+](C(C)OC(=O)N(C)c7ncccc7CNC)cn6)(c6ccc(F)cc6F)C5)cc4)CC3)cc2)c1=O (stereo partly drawn) [ST0037] | 
4 |  | CC[C@@H]([C@H](C)OC(=O)OC(C)OC(=O)CN(C)P(=O)([O-])[O-])n1ncn(-c2ccc(N3CCN(c4ccc(OC[C@@H]5CO[C@@](Cn6cncn6)(c6ccc(F)cc6F)C5)cc4)CC3)cc2)c1=O.[Na+].[Na+] (stereo partly drawn) [ST0054] | 40.9
5 | > 50 | CC[C@@H](C(C)OC(=O)OC(C)OC(=O)CN(C)S(=O)(=O)[O-])n1ncn(-c2ccc(N3CCN(c4ccc(OC[C@@H]5CO[C@@](Cn6cncn6)(c6ccc(F)cc6F)C5)cc4)CC3)cc2)c1=O.[Na+] (stereo partly drawn) [ST0056] | 
6 | > 50 | CC[C@@H]([C@H](C)OC(=O)OCCOP(=O)([O-])[O-])n1ncn(-c2ccc(N3CCN(c4ccc(OC[C@@H]5CO[C@@](Cn6cncn6)(c6ccc(F)cc6F)C5)cc4)CC3)cc2)c1=O.[Na+].[Na+] [ST0059] | 
7 | > 50 | CC[C@@H]([C@H](C)OC(=O)OCCOCCOCCOP(=O)([O-])[O-])n1ncn(-c2ccc(N3CCN(c4ccc(OC[C@@H]5CO[C@@](Cn6cncn6)(c6ccc(F)cc6F)C5)cc4)CC3)cc2)c1=O.[Na+].[Na+] [ST0061] | 
8 | > 50 | CC[C@@H]([C@H](C)OC(=O)OC(C)OC(=O)CCCOP(=O)([O-])[O-])n1ncn(-c2ccc(N3CCN(c4ccc(OC[C@@H]5CO[C@@](Cn6cncn6)(c6ccc(F)cc6F)C5)cc4)CC3)cc2)c1=O.[Na+].[Na+] (stereo partly drawn) [ST0062] | 
9 | > 50 | CC[C@@H]([C@H](C)OC(=O)OC(C)OC(=O)COP(=O)([O-])[O-])n1ncn(-c2ccc(N3CCN(c4ccc(OC[C@@H]5CO[C@@](Cn6cncn6)(c6ccc(F)cc6F)C5)cc4)CC3)cc2)c1=O.[Na+].[Na+] (stereo partly drawn) [ST0065] | 
10 | > 50 | CC[C@@H](C(C)OC(=O)OC(C)OC(=O)CCCCOP(=O)([O-])[O-])n1ncn(-c2ccc(N3CCN(c4ccc(OC[C@@H]5CO[C@@](Cn6cncn6)(c6ccc(F)cc6F)C5)cc4)CC3)cc2)c1=O.[Na+].[Na+] (stereo partly drawn) [ST0068] | 
11 | 43.7 | CC[C@@H](C(C)OC(=O)OC(C)OC(=O)CCCCCCCOP(=O)([O-])[O-])n1ncn(-c2ccc(N3CCN(c4ccc(OC[C@@H]5CO[C@@](Cn6cncn6)(c6ccc(F)cc6F)C5)cc4)CC3)cc2)c1=O.[Na+].[Na+] (stereo partly drawn) [ST0069] | 
12 | 23.4 | CC[C@@H](C(C)OC(=O)OC(C)OC(=O)CCCCCCCCOP(=O)([O-])[O-])n1ncn(-c2ccc(N3CCN(c4ccc(OC[C@@H]5CO[C@@](Cn6cncn6)(c6ccc(F)cc6F)C5)cc4)CC3)cc2)c1=O.[Na+].[Na+] (stereo partly drawn) [ST0071] | 
13 | > 50 | CC[C@@H](C(C)OC(=O)OC(C)OC(=O)COS(=O)(=O)[O-])n1ncn(-c2ccc(N3CCN(c4ccc(OC[C@@H]5CO[C@@](Cn6cncn6)(c6ccc(F)cc6F)C5)cc4)CC3)cc2)c1=O.[Na+] (stereo partly drawn) [ST0075] | 
14 | > 50 | CC[C@@H](C(C)OC(=O)OC(C)OC(=O)CCOS(=O)(=O)[O-])n1ncn(-c2ccc(N3CCN(c4ccc(OC[C@@H]5CO[C@@](Cn6cncn6)(c6ccc(F)cc6F)C5)cc4)CC3)cc2)c1=O.[Na+] (stereo partly drawn) [ST0076] | 
15 | > 50 | CC[C@@H]([C@H](C)OC(=O)OC(C)OC(=O)CCCCCCOS(=O)(=O)[O-])n1ncn(-c2ccc(N3CCN(c4ccc(OC[C@@H]5CO[C@@](Cn6cncn6)(c6ccc(F)cc6F)C5)cc4)CC3)cc2)c1=O.[Na+] (stereo partly drawn) [ST0081] | 
